According to ChEMBL document CHEMBL1201862, “PubChem BioAssay data set” (2004):
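Five concentrations, 48 hours, 96-well plates. The concentration for 50% growth inhibition is given as GI50.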 The source made the active and inactive calls. Rule as the data show it: active = GI50 up to about 1.1 µM and inactive = higher.

Columns and labels:
Experiment in all cases: NCI anticancer screen, dose series, 48 h
A549 = system: A549
CCRF-CEM = system: CCRF-CEM
COLO 205 = system: COLO 205
EKVX = system: EKVX
HL-60 = system: HL-60
HT-29 = system: HT-29
KM12 = system: KM12
MDA-MB-435 = system: MDA-MB-435
NCI-H226 = system: NCI-H226
NCI-H460 = system: NCI-H460
NCI/ADR-RES = system: NCI/ADR-RES
OVCAR-4 = system: OVCAR-4
OVCAR-8 = system: OVCAR-8
RPMI-8226 = system: RPMI-8226
SF-539 = system: SF-539
SR = system: SR
T47D = system: T47D
TK-10 = system: TK-10
UACC-62 = system: UACC-62
UO-31 = system: UO-31

SMILES | GI50 (A549) | GI50 (CCRF-CEM) | GI50 (COLO 205) | GI50 (EKVX) | GI50 (HL-60) | GI50 (HT-29) | GI50 (KM12) | GI50 (MDA-MB-435) | GI50 (NCI-H226) | GI50 (NCI-H460) | GI50 (NCI/ADR-RES) | GI50 (OVCAR-4) | GI50 (OVCAR-8) | GI50 (RPMI-8226) | GI50 (SF-539) | GI50 (SR) | GI50 (T47D) | GI50 (TK-10) | GI50 (UACC-62) | GI50 (UO-31)
CCOC(=O)c1c(C)n(Cc2ccc(Cl)cc2Cl)c2c1cc(O)c1[nH]c3c(c12)CCCC3 | 52 µM (inactive) | 16.8 µM (inactive) | 37.1 µM (inactive) | 34.6 µM (inactive) | < 0.01 µM (active) | 24 µM (inactive) | 22.6 µM (inactive) | 20.3 µM (inactive) | 23.6 µM (inactive) | 28.3 µM (inactive) | 18.8 µM (inactive) | 17.1 µM (inactive) | 11.4 µM (inactive) | 16.6 µM (inactive) | 24.1 µM (inactive) | 0.136 µM (active) | 14.7 µM (inactive) | 24.5 µM (inactive) | 22.5 µM (inactive) | 20.7 µM (inactive)
COc1cc(OC)c2c(c1)OC(c1ccccc1)CC2=O (centres undefined) [DIMETHYLPINOCEMBRIN] | > 10 µM (inactive) | > 10 µM (inactive) | > 10 µM (inactive) | > 10 µM (inactive) | > 10 µM (inactive) | > 10 µM (inactive) | > 10 µM (inactive) | > 10 µM (inactive) | > 10 µM (inactive) | > 10 µM (inactive) | > 10 µM (inactive) | > 10 µM (inactive) | > 10 µM (inactive) | > 10 µM (inactive) | > 10 µM (inactive) | > 10 µM (inactive) | > 10 µM (inactive) | > 10 µM (inactive) | > 10 µM (inactive) | > 10 µM (inactive)
CS(C)(=O)=N/C=C\C(=O)C(Cl)(Cl)Cl | > 100 µM (inactive) | 44.1 µM (inactive) | > 100 µM (inactive) | > 100 µM (inactive) | > 100 µM (inactive) | > 100 µM (inactive) | > 100 µM (inactive) | > 100 µM (inactive) | > 100 µM (inactive) | > 100 µM (inactive) | > 100 µM (inactive) | > 100 µM (inactive) | > 100 µM (inactive) | 83 µM (inactive) | > 100 µM (inactive) | 58.7 µM (inactive) | > 100 µM (inactive) | > 100 µM (inactive) | 92.3 µM (inactive) | > 100 µM (inactive)
CN1CCc2c(sc3nc(S)nc(S)c23)C1 | > 100 µM (inactive) | > 100 µM (inactive) | > 100 µM (inactive) | > 100 µM (inactive) | > 100 µM (inactive) | > 100 µM (inactive) | > 100 µM (inactive) | > 100 µM (inactive) | > 100 µM (inactive) | > 100 µM (inactive) | > 100 µM (inactive) | > 100 µM (inactive) | > 100 µM (inactive) | > 100 µM (inactive) | > 100 µM (inactive) | > 100 µM (inactive) | > 100 µM (inactive) | > 100 µM (inactive) | > 100 µM (inactive) | 
CC(=O)OCc1cc(CCC(=O)NCCNc2c3ccccc3nc3ccccc23)cc(COC(C)=O)c1O[Si](C)(C)C(C)(C)C | 7.13 µM (inactive) | 3.7 µM (inactive) | 4.35 µM (inactive) | 13.4 µM (inactive) | 2.87 µM (inactive) | 2.63 µM (inactive) | 2.95 µM (inactive) | 2.97 µM (inactive) | 2.19 µM (inactive) | 3.72 µM (inactive) | 20.7 µM (inactive) | 6.19 µM (inactive) | 13.8 µM (inactive) | 2.57 µM (inactive) | 2.59 µM (inactive) | 2.21 µM (inactive) | 1.97 µM (inactive) | 7.46 µM (inactive) | 6.9 µM (inactive) | 12.9 µM (inactive)
CC(=O)OCC(C)C1=C(O)C(=O)C2(C)C/C=C(/C)CC/C=C(\C)CCC(O)C(C)CCC12 (centres undefined) | 18 µM (inactive) | 21.5 µM (inactive) | 17.1 µM (inactive) | 16.4 µM (inactive) | 17.5 µM (inactive) | 17.3 µM (inactive) | 14.2 µM (inactive) | 17.5 µM (inactive) | 17.6 µM (inactive) | 14.7 µM (inactive) | 21.1 µM (inactive) | 17.5 µM (inactive) | 18.1 µM (inactive) | 11.9 µM (inactive) | 16.3 µM (inactive) | 7.89 µM (inactive) | 1.94 µM (inactive) | 19.6 µM (inactive) | 18.8 µM (inactive) | 14.2 µM (inactive)
C/C(=N\NC(=N)N)C(CN(C)C)C(c1ccccc1)c1c(O)c2ccccc2oc1=O (centres undefined) | > 100 µM (inactive) | > 100 µM (inactive) | > 100 µM (inactive) | > 100 µM (inactive) | > 100 µM (inactive) | > 100 µM (inactive) | > 100 µM (inactive) | > 100 µM (inactive) | > 100 µM (inactive) | > 100 µM (inactive) | > 100 µM (inactive) | > 100 µM (inactive) | > 100 µM (inactive) | > 100 µM (inactive) | > 100 µM (inactive) | > 100 µM (inactive) | 4.62 µM (inactive) | > 100 µM (inactive) | > 47.6 µM (inactive) | > 100 µM (inactive)
